Assay results from patent publication US20250352524A1, “PREVENTION OF METASTATIC OUTGROWTH USING TEAD INHIBITORS” (Georgetown University, priority 2024, published 2025).
“Also recorded” adds a separate entry of the source.

Key:
DCIS:DCISA4 cells = test: DCIS:DCIS-Δ4 mammary fat pad tumors in NOD/SCID mice, lung metastasis; type: in vivo; settings: for growth rate or final volume of the primary tumors: tumors resected at 4 weeks; for outgrowth of cancer cells disseminated to the lungs: immunofluorescent staining of lungs
Protocol: Parental ductal carcinoma in situ (DCIS) was mixed with genetically-modified DCIS cells expressing AIB1-Δ4 (“DCIS-Δ4”) (see Sharif et al., 2021) at a 4:1 ratio, and the mix was injected into the mammary fat pad (MFP) of the mice. One group of mice received 30 mg/kg of the TEAD inhibitor VT107 (“iTEAD”) and the other group received vehicle treatment by daily oral gavage for 4 weeks. The primary tumors were removed by survival surgery. There was no difference observed in the growth rate or final volume of the primary tumors.
Lung tissues were subjected to RNA-Seq analysis, and Gene Set Enrichment Analysis (GSEA) was used to determine altered signaling pathways upon iTEAD treatment.
To further examine the effect of TEAD inhibition on the myeloid compartment of the lung, a human breast cancer cell line MCFDCIS (DCIS) that metastasizes to the lungs when a small population of cells (DCISA4) expresses an isoform of the transcription coactivator amplified in breast cancer 1 (Sharif et al., 2021), was used. DCIS:DCISA4 cells were injected into the mammary fat pad of NOD/SCID mice. Mice were treated daily with VT107. Tumors were surgically removed at week 4 and lungs were monitored for metastases for another 4 weeks without receiving additional treatment (FIG. 13, Panel B). Mouse body weights were measured weekly throughout the course of treatment (FIG. 13, Panel C). […] All mice in the vehicle treated group developed lung metastases as previously reported (Sharif et al., 2021). […] RNA was extracted from lung tissues to further examine the host stroma affected by VT107. RNA sequencing reads from the lungs were aligned to the mouse transcriptome to shed light on the host tissue changes in response to treatment in the presence of seeded cancer cells. […] These observations again show a shift in the inflammatory phenotypes in the microenvironment which could be responsible for the halt in the metastatic outgrowth of seeded cancer cells in the treated group.
Studies in mice were reviewed and approved by the Georgetown University Animal Care and Use Committee (GUACUC). Animals were randomized to receive vehicle control (DMSO) or VT107. Treatment was formulated in 5% DMSO, 10% solutol and 85% D5W; D5W. 5% glucose and administered daily by oral gavage. Five hundred thousand cells were injected into the mammary fat pad of age-matched 8 weeks old female NOD/SCID or C57/B16 mice purchased from Charles River or Jackson Laboratory, respectively. A hundred thousand 4T1 cells were injected into the tail veins of BALB/c mice purchased from Jackson Laboratory. Experimental timelines, treatment start times and durations are indicated in the figure diagrams and figure legends. Tissues collected were preserved in RNAlater (Thermofisher, #AM7020) or fixed in 10% formalin for histology analysis.
The total RNA from tissue or cell lines was extracted using RNeasy Mini Kit (Qiagen, #74104) according to the manufacturer's instructions. Total RNA integrity was assessed with the Agilent 2100 Bioanalyzer. The library preparation and next-generation sequencing (NGS) were performed at Novogene Corporation Inc. (Sacramento, CA, USA). At least triplicate samples per experimental condition were analyzed, raw sequence reads (150 bp paired end, […] average reads/sample) were aligned to the human or mouse transcriptome using STAR, and aligned reads translated to expression counts via featurecounts, followed by a standard edgeR (RRID:SCR_012802) pipeline to identify DEGs under specific conditions. Ingenuity pathway analysis (IPA, RRID:SCR_008653) was undertaken using a list of all differentially expressed genes with a cutoff of p-value less than 0.05 to identify signaling pathways and upstream regulators.

T-cells = test: Degranulation assay of T-cells co-cultured with 4T1 cells; type: cell-based, BALB/c mice
Protocol: The hippo pathway has been implicated in T-cell development and function (Du et al., 2014; Ueda et al., 2012). For example, YAP expression is essential for tumor immune suppression by Treg cells that attenuates CD8 T-cell immunity (Geng et al., 2017; Ni et al., 2018; Lebid et al., 2020). […] To investigate whether VT107 directly affected T-cells, T-cells treated with VT107 were co-cultured with 4T1 cells in 2D for 72 hours. […] To further confirm T-cell activation upon TEAD activity reduction, we used Jurkat cells, a CD4 positive human lymphoma cell line (Schneider et al., 1977). […] However, here we show the specific effect of TEAD reduction on granzyme gene expression and degranulation that result in the killing of cancer cells.
T-cells were isolated from the spleens of naïve BALB/c as described above and treated in vitro with DMSO control or VT107 for 24 hours. T-cells were then co-cultured with 4T1 cells with the same treatment conditions. After 72 hours, all cells were collected and subdued to flow cytometry using anti-CD45-AF700 (Biolegend, 103128), anti-CD8-BV785 (Biolegend, 100750), anti-CD4-Pacific Blue (Biolegend, 116007), anti-CD107a-PE/Cy7 (Biolegend, 121620), and Helix NP Blue (Biolegend, 425305). Analysis was performed on the BD FACSymphony Δ3 flow cytometer analyzer, and results were analyzed using FCS Express 7 Research (De Novo Software).

[1] = pathway analysis of lung RNA sequencing, VT107 vs vehicle

## VT107
DCIS:DCISA4 cells; 30 mg/kg daily oral gavage for 4 weeks vs vehicle, H&E lung sections, listed as iTEAD
  development of lung metastases: did not develop lung metastases; also recorded: significantly reduced
DCIS:DCISA4 cells; 30 mg/kg daily oral gavage for 4 weeks vs vehicle
  growth rate or final volume of the primary tumors: similar
DCIS:DCISA4 cells; 30 mg/kg daily oral gavage for 4 weeks vs vehicle, listed as iTEAD
  growth rate or final volume of the primary tumors: no difference; also recorded: no effect
DCIS:DCISA4 cells; 30 mg/kg daily
  outgrowth of cancer cells disseminated to the lungs: failed to grow into overt metastases
DCIS:DCISA4 cells; 30 mg/kg daily, listed as iTEAD
  outgrowth of cancer cells disseminated to the lungs: halted outgrowth; also recorded: unable to outgrow
DCIS:DCISA4 cells; 30 mg/kg daily, lungs monitored 4 weeks after tumor removal, all vehicle mice developed metastases
  mice with no overt lung metastases: 4 out of 5
DCIS:DCISA4 cells; RNA-Seq of lung tissue, iTEAD vs vehicle
  Toll-like receptor 4 (TLR4) signaling pathway in lung tissue (GSEA): drop and downregulation
DCIS:DCISA4 cells; VT107-treated mice
  human actin relative to mouse actin in lung tissues by qPCR: presence of DCIS cells
DCIS:DCISA4 cells; [1]
  myeloid cell activating pathways, acute phase response signaling and PD-L1 immunotherapy pathways in lungs: upregulation
  signaling pathways implicated in pulmonary and hepatic fibrosis, cardiac hypertrophy and liver injury in lungs: downregulated
T-cells; 1 μM VT107, co-culture with 4T1 cells 72 hours, flow cytometry
  T-cell degranulation marker CD107a: significantly increased
T-cells; T-cells treated with VT107, co-cultured with 4T1 cells in 2D for 72 hours
  IFNγ levels: no change
